Results from US4159373A, “7-Acyl-3-(sulfonic acid and sulfamoyl substituted tetrazolyl thiomethyl) cephalosporins” (SmithKline Corporation, priority 1978, dated 1979).
In brackets after ≈: the same amount, converted by molar mass. Like-named read-outs stand apart in the source and are kept apart here. Values belong to the compound of their own block, whether it stands above or below them.

Assays:
Serra. marc ATCC 13880 = experiment: MIC in vitro; format: cell-based, Serratia marcescens; details: Serratia marcescens
Method: (§1) The compounds of Formula I have exceptional antibacterial activity against both Gram-positive and Gram-negative organisms. Minimum inhibitory concentrations (MIC's) ranged from 0.2 to <200 μg./ml. in in vitro testing.

Psuedo. sp. HH 63 = experiment: MIC in vitro; format: cell-based, Pseudo. aeruginosa
Method: as §1

Kleb. pneumo. 4200 = experiment: In vivo mouse protection, Kleb. pneumo. 4200; details: sc
E. coli SK 12140 = experiment: MIC in vitro; format: cell-based
Method: as §1

S. aureus HH 127 = experiment: MIC in vitro; format: cell-based; details: Staphylococcus aureus
Method: as §1

Proteus morgani 179 = experiment: MIC in vitro; format: cell-based
Method: as §1

Strep. Faecalis HH 34358 = experiment: MIC in vitro; format: cell-based; details: Enterococcus faecalis
Method: as §1

E. coli 12140 = experiment: In vivo mouse protection, E. coli 12140; details: Escherichia coli, 12140, sc, s.c.
Kleb. pneumoniae 982 = experiment: MIC in vitro; format: cell-based
Proteus mirabilis 444 = experiment: MIC in vitro; format: cell-based
Staph. aureus 671 = experiment: MIC in vitro; format: cell-based
[1] = tested on: Entero. aerog. ATCC 13048; experiment: MIC in vitro; format: cell-based, Enterobacter aerogenes; details: Klebsiella aerogenes
Method: as §1

Staph. aureus 674 = experiment: MIC in vitro; format: cell-based
E. coli 804 = experiment: MIC in vitro; format: cell-based
Pseudo. aeruginosa 647 = experiment: MIC in vitro; format: cell-based
Kleb. pneumo. SK 4200 = experiment: MIC in vitro; format: cell-based, Kleb. pneumoniae; details: Klebsiella pneumoniae
Method: as §1

Kleb. pneumo. SK 1200 = experiment: MIC in vitro; format: cell-based, Kleb. pneumoniae; details: Klebsiella pneumoniae
Method: as §1

Enterobacter cloacae 921 = experiment: MIC in vitro; format: cell-based
E. coli HH 33779 = experiment: MIC in vitro; format: cell-based; details: Escherichia coli, HH33779, Table 1; E. coli HH 33779; read-out: MIC in vitro
Method: as §1

Salmonella ATCC 12176 = experiment: MIC in vitro; format: cell-based; details: Salmonella, ATCC12176, Table 1, read-out: MIC in vitro
Method: as §1

S. aureus SK 23390 = experiment: MIC in vitro; format: cell-based; details: Staphylococcus aureus, SK23390, Table 1; S. aureus SK 23390; read-out: MIC in vitro
Method: as §1

[2] = ATCC13880, Example 55 table, Serratia marcescens ATCC 13880, read-out: MIC
[3] = Example 55, s.c., K. pneumo. SK&F 4200, read-out: ED50
[4] = Example 55 table, Staph. aureus HH127, read-out: MIC
[5] = Example 55 table, read-out: MIC
[6] = Example 55 table, Strep. faecalis HH 34358, read-out: MIC
[7] = Example 55, E. coli SKF 12140, read-out: ED50
[8] = ATCC13048, Example 55 table, Enterobacter aerogenes 13048, read-out: MIC
[9] = Staphylococcus aureus, 674, Example 55 table
[10] = Example 55 table, Kleb. pneumoniae SK&F 4200, read-out: MIC
[11] = Example 55 table, Kleb. pneumoniae SK&F 1200, read-out: MIC
[12] = Enterobacter cloacae, 921, Example 55 table
[13] = Example 54 table, read-out: MIC

MIC (Serra. marc ATCC 13880; [2]): > 100 µg/mL | MIC (Psuedo. sp. HH 63; Pseudomonas aeruginosa, Example 55 table, Pseudo. aeruginosa HH63, read-out: MIC): > 100 µg/mL | MIC (E. coli SK 12140; Escherichia coli, SK12140, Example 55 table, E. coli SK&F 12140, read-out: MIC): 1.6 µg/mL (≈ 2.88 µM) | MIC (S. aureus HH 127; [4]): 1.6 µg/mL (≈ 2.88 µM) | MIC (Proteus morgani 179; [5]): > 100 µg/mL | MIC (Strep. Faecalis HH 34358; [6]): 100 µg/mL (≈ 180 µM) | MIC (Kleb. pneumoniae 982; Klebsiella pneumoniae, Example 55 table, read-out: MIC): > 100 µg/mL | MIC (Proteus mirabilis 444; [5]): 0.4 µg/mL (≈ 0.72 µM) | MIC (Staph. aureus 671; Staphylococcus aureus, Example 55 table): 6.3 µg/mL (≈ 11.3 µM) | MIC [1, 8]: 50 µg/mL (≈ 90 µM) | MIC (Staph. aureus 674; [9]): 1.6 µg/mL (≈ 2.88 µM) | MIC (E. coli 804; Escherichia coli, Example 55 table, read-out: MIC): > 100 µg/mL | MIC (Pseudo. aeruginosa 647; Pseudomonas aeruginosa, Example 55 table, read-out: MIC): > 100 µg/mL | MIC (Kleb. pneumo. SK 4200; [10]): 0.2 µg/mL (≈ 0.36 µM) | MIC (Kleb. pneumo. SK 1200; [11]): ≤ 0.1 µg/mL | MIC (Enterobacter cloacae 921; [12]): 25 µg/mL (≈ 45 µM)
Structure (SMILES): NCc1cccc(CC(=O)NC2C(=O)N3C(C(=O)O)=C(CSc4nnnn4CS(=O)(=O)O)CSC23)c1 (centres unmarked) [Example 55, 7-(3-Aminomethylphenylacetamido)-3-(1-sulfomethyltetrazol-5-ylthiomethyl)-3-cephem-4-carboxylic acid]
ED50 (Kleb. pneumo. 4200; [3]): < 0.19 mg/kg | ED50 (E. coli 12140; [7]): 1.82 mg/kg

Structure (SMILES): Cc1nnc(SCC2=C(C(=O)O)N3C(=O)[C@@H](NC(=O)Cn4cnnn4)[C@H]3SC2)s1 [XIII, Cefazolin, reference compound]
MIC (Serra. marc ATCC 13880; ATCC13880, Example 54 table, Serratia marcescens ATCC 13880, read-out: MIC): > 100 µg/mL | MIC (Serra. marc ATCC 13880; [2]): > 100 µg/mL | MIC (Serra. marc ATCC 13880; ATCC13880, Table 1, Serra. marc ATCC 13880, read-out: MIC in vitro): 200 µg/mL (≈ 440 µM) | MIC (Psuedo. sp. HH 63; Example 55 table, Pseudo. aeruginosa HH63): > 100 µg/mL | MIC (Psuedo. sp. HH 63; Pseudomonas aeruginosa, Example 54 table, Pseudo. aeruginosa HH 63, read-out: MIC): > 100 µg/mL | MIC (Psuedo. sp. HH 63; Pseudomonas aeruginosa, Table 1, Psuedo. sp. HH 63, read-out: MIC in vitro): > 200 µg/mL | ED50 (Kleb. pneumo. 4200; Example 54, s.c., K. pneumo. SKF 4200, read-out: ED50): 0.7 mg/kg | ED50 (Kleb. pneumo. 4200; [3]): 8.7 mg/kg | ED50 (Kleb. pneumo. 4200; Table 2, Kleb. pneumo. 4200, s.c., read-out: ED50 in vivo): 6.25 mg/kg | MIC (E. coli HH 33779): 0.8 µg/mL (≈ 1.76 µM) | MIC (Salmonella ATCC 12176): 0.8 µg/mL (≈ 1.76 µM) | MIC (S. aureus SK 23390): 0.2 µg/mL (≈ 0.44 µM) | MIC (E. coli SK 12140; Escherichia coli, SK12140, Example 54 table, E. coli SK&F 12140, read-out: MIC): 0.8 µg/mL (≈ 1.76 µM) | MIC (E. coli SK 12140; Escherichia coli, SK12140, Table 1, E. coli SK 12140, read-out: MIC in vitro): 0.8 µg/mL (≈ 1.76 µM) | MIC (E. coli SK 12140; Example 55 table, E. coli SK&F 12140): 0.8 µg/mL (≈ 1.76 µM) | MIC (S. aureus HH 127; HH127, Example 54 table, Staph. aureus HH 127): 0.8 µg/mL (≈ 1.76 µM) | MIC (S. aureus HH 127; HH127, Table 1, S. aureus HH 127, read-out: MIC in vitro): 0.4 µg/mL (≈ 0.88 µM) | MIC (S. aureus HH 127; [4]): 0.4 µg/mL (≈ 0.88 µM) | MIC (Proteus morgani 179; [13]): > 100 µg/mL | MIC (Proteus morgani 179; [5]): > 100 µg/mL | MIC (Proteus morgani 179; Table 1, read-out: MIC in vitro): 200 µg/mL (≈ 440 µM) | MIC (Strep. Faecalis HH 34358; Example 54 table, Strep. faecalis HH 34358, read-out: MIC): 25 µg/mL (≈ 55 µM) | MIC (Strep. Faecalis HH 34358; [6]): 12.5 µg/mL (≈ 27.5 µM) | MIC (Strep. Faecalis HH 34358; Table 1, Strep. Faecalis HH 34358, read-out: MIC in vitro): 6.3 µg/mL (≈ 13.9 µM) | ED50 (E. coli 12140; Example 54, E. coli SKF 12140, read-out: ED50): 4.4 mg/kg | ED50 (E. coli 12140; [7]): 3.12 mg/kg | ED50 (E. coli 12140; Table 2, E. coli 12140, read-out: ED50 in vivo): 4 mg/kg | MIC (Kleb. pneumoniae 982; Example 55 table): > 100 µg/mL | MIC (Kleb. pneumoniae 982; Klebsiella pneumoniae, Example 54 table, read-out: MIC): > 100 µg/mL | MIC (Proteus mirabilis 444; [13]): 3.1 µg/mL (≈ 6.82 µM) | MIC (Proteus mirabilis 444; Example 55 table): 3.1 µg/mL (≈ 6.82 µM) | MIC (Staph. aureus 671; Staphylococcus aureus, 671, Example 55 table): 12.5 µg/mL (≈ 27.5 µM) | MIC (Staph. aureus 671; Staphylococcus aureus, Example 54 table): 0.8 µg/mL (≈ 1.76 µM) | MIC ([1]; ATCC13048, Example 54 table, Enterobacter aerogenes 13048, read-out: MIC): 3.1 µg/mL (≈ 6.82 µM) | MIC [1, 8]: 3.1 µg/mL (≈ 6.82 µM) | MIC ([1]; ATCC13048, Table 1, Entero. aerog. ATCC 13048, read-out: MIC in vitro): 1.6 µg/mL (≈ 3.52 µM) | MIC (Staph. aureus 674; Staphylococcus aureus, 674, Example 54 table): 0.4 µg/mL (≈ 0.88 µM) | MIC (Staph. aureus 674; [9]): 0.2 µg/mL (≈ 0.44 µM) | MIC (E. coli 804; Escherichia coli, Example 54 table, read-out: MIC): 100 µg/mL (≈ 220 µM) | MIC (E. coli 804; Example 55 table): 100 µg/mL (≈ 220 µM) | MIC (Pseudo. aeruginosa 647; Example 55 table): > 100 µg/mL | MIC (Pseudo. aeruginosa 647; Pseudomonas aeruginosa, Example 54 table, read-out: MIC): > 100 µg/mL | MIC (Kleb. pneumo. SK 4200; Example 54 table, Kleb. pneumoniae SK&F 4200, read-out: MIC): 3.1 µg/mL (≈ 6.82 µM) | MIC (Kleb. pneumo. SK 4200; [10]): 1.6 µg/mL (≈ 3.52 µM) | MIC (Kleb. pneumo. SK 4200; Table 1, Kleb. pneumo. SK 4200, read-out: MIC in vitro): 0.8 µg/mL (≈ 1.76 µM) | MIC (Kleb. pneumo. SK 1200; Example 54 table, Kleb. pneumoniae SK&F 1200, read-out: MIC): 0.4 µg/mL (≈ 0.88 µM) | MIC (Kleb. pneumo. SK 1200; [11]): 0.8 µg/mL (≈ 1.76 µM) | MIC (Kleb. pneumo. SK 1200; Table 1, Kleb. pneumo. SK 1200, read-out: MIC in vitro): 0.8 µg/mL (≈ 1.76 µM) | MIC (Enterobacter cloacae 921; Enterobacter cloacae, 921, Example 54 table): 25 µg/mL (≈ 55 µM) | MIC (Enterobacter cloacae 921; [12]): 6.3 µg/mL (≈ 13.9 µM)
